Test results reported in US4241052A, “Novel nitrosourea compounds and process for preparing the same” (Tanabe Seiyaku Co., Ltd., priority 1978, dated 1980).

Columns and labels:
[1] = tested on: tumor cells of lymphoid leukemia L-1210; conditions: tumor cells implanted intraperitoneally; U.S. Pat. No. 4086451 and Japanese publications; cited from earlier work
[2] = Preventive effect against the growth of Ehrlich ascites carcinoma (Method A); format: in vivo, mice (ICR, female); conditions: mouse, in vivo, ip; max dose, 100% inhibition without death; doses of the table in mg/kg/day; read-out: MTD (Maximum Tolerated Dose)
Method: (§1) (A) Preventive effect against the growth of Ehrlich ascites tumor
(§2) 10^6 tumor cells of Ehrlich ascites carcinoma were inoculated intraperitoneally into a group of five femal mice (ICR mice, body weight: 19-23 g). A test compound was dissolved in a physiological saline solution and administered intraperitoneally to the mice. The administration of the test compound was began 24 hours after the inoculation of the tumor cells and performed once a day for 5 days. The volume of ascites in the treated mice were measured after 7 days of the experiment.

[3] = tested on: Ehrlich ascites carcinoma; test: as above; format: in vivo, mice (ICR, female); conditions: for inhibition in vivo at 0.78 mg/kg: 0.78 mg/kg/day i.p.; for inhibition in vivo at 1.56 mg/kg: 1.56 mg/kg/day i.p.; for inhibition in vivo at 6.25 mg/kg: 6.25 mg/kg/day i.p.; for inhibition in vivo at 25 mg/kg: 25 mg/kg/day i.p.; for inhibition in vivo at 100 mg/kg: 100 mg/kg/day i.p.; for inhibition in vivo at 400 mg/kg: 400 mg/kg/day i.p.; for minimal effective dose: 168 h, min dose, 100% inhibition, doses of the table in mg/kg/day, read-out: MED (Minimum Effective Dose); for inhibition in vivo at 0.39 mg/kg: 0.39 mg/kg/day i.p.; for inhibition in vivo at 0.19 mg/kg: 0.19 mg/kg/day i.p.
Method: as §1, §2

Leukemia L-1210 = test: Effect on life span of mice implanted with leukemic cells of L-1210 (Method B); format: in vivo, mice (BDF1, male); conditions: 5 days
Method: (B) Effect on the life span of mice implanted with leukemic cells of L-1210
10^5 leukemic cells of L-1210 were inoculated intraperitoneally into a group of four male mice (BDF1 mice, body weight: 19-23 g). A test compound was dissolved in a physiological saline solution and administered intraperitoneally to the mice. The administration of the test compound was began 24 hours after the inoculation of the leukemic cells and performed once a day for 5 days. The survival days of the treated mice were observed.

[4] = Mus musculus, Ehrlich, ip, 120 h, 5 days, read-out: Inhibition ratio

Row | SMILES | MTD at 168 h [2] [mg/kg/day] | Toxic (number of mice died/number of mice used) ([3]; 800 mg/kg/day i.p., 5 days) | Therapeutic index (MTD/MED) [3] | inhibition in vivo at 0.78 mg/kg [3, 4] [%] | inhibition in vivo at 1.56 mg/kg [3, 4] [%] | inhibition in vivo at 6.25 mg/kg [3, 4] [%] | inhibition in vivo at 25 mg/kg [3, 4] [%] | inhibition in vivo at 100 mg/kg [3, 4] [%] | inhibition in vivo at 400 mg/kg [3, 4] [%] | minimal effective dose ([3]; Mus musculus, Ehrlich, ip) [mg/kg/day] | 60-day survivors (mice survived/mice used) (Leukemia L-1210; 25 mg/kg/day i.p.) | ILS (Leukemia L-1210; 25 mg/kg/day i.p.) [%] | 60-day survivors (mice survived/mice used) (Leukemia L-1210; 200 mg/kg/day i.p.) | ILS (Leukemia L-1210; 200 mg/kg/day i.p.) [%] | 60-day survivors (mice survived/mice used) (Leukemia L-1210; 100 mg/kg/day i.p.) | ILS (Leukemia L-1210; 100 mg/kg/day i.p.) [%] | Toxic (number of mice died/number of mice used) ([3]; 200 mg/kg/day i.p., 5 days) | inhibition in vivo at 0.39 mg/kg [3, 4] [%] | 60-day survivors (mice survived/mice used) (Leukemia L-1210; 6.25 mg/kg/day i.p.) | ILS (Leukemia L-1210; 6.25 mg/kg/day i.p.) [%] | further results
1 | O=NN(CCCl)C(=O)NC1O[C@H](CO)[C@@H](O)[C@H](O)[C@@H]1O (stereo partly drawn) [1-(2-chloroethyl)-1-nitroso-3-(D-mannopyranosyl)urea] | – | – | – | – | – | – | – | – | – | – | – | – | – | – | – | – | – | – | – | – | life span of mice implanted with L-1210 [1]: increase the life span
2 | COc1ccc(CN(C(=O)N(CCCl)N=O)C2O[C@H](CO)[C@@H](O[C@H]3O[C@H](CO)[C@@H](O)[C@H](O)[C@H]3O)[C@H](O)[C@H]2O)cc1 (stereo partly drawn) [Compound 3, 1-(2-chloroethyl)-1-nitroso-3-(p-methoxybenzyl)-3-[O-α-D-glucopyranosyl-(1→4)-D-glucopyranosyl]urea] | 400 | 5/5 | 256 | 23.1 | 100 | 100 | 100 | 100 | 100 | 1.56 | 0/4 | 50.7 | 2/4 | > 328.8 | – | – | – | – | – | – | 60-day survivors (mice survived/mice used) (Leukemia L-1210; 400 mg/kg/day i.p.): 4/4; ILS (Leukemia L-1210; 400 mg/kg/day i.p.): > 721.9%
3 | O=NN(CCCl)C(=O)N(Cc1ccco1)C1O[C@H](CO)[C@@H](O[C@H]2O[C@H](CO)[C@@H](O)[C@H](O)[C@H]2O)[C@H](O)[C@H]1O (stereo partly drawn) [Compound 6, 1-(2-chloroethyl)-1-nitroso-3-furfuryl-3-[O-α-D-glucopyranosyl-(1→4)-D-glucopyranosyl]urea] | 400 | 5/5 | 128 | 21.6 | 76.5 | 100 | 100 | 100 | 100 | 3.12 | 0/4 | 65.3 | 4/4 | > 733.3 | 2/4 | > 351.4 | – | – | – | – | inhibition in vivo at 3.12 mg/kg ([3]; Mus musculus, Ehrlich, ip, 120 h, 3.12 mg/kg/day i.p., 5 days, read-out: Inhibition ratio): 100%
4 | O=NN(CCCl)C(=O)N(CC1CCCO1)C1O[C@H](CO)[C@H](O)[C@H](O)[C@H]1O (stereo partly drawn) [Compound 9, 1-(2-chloroethyl)-1-nitroso-3-tetrahydrofurfuryl-3-(D-galactopyranosyl)urea] | 100 | – | 64 | 37.5 | 100 | 100 | 100 | 100 | – | 1.56 | 4/4 | > 689.5 | – | – | 4/4 | > 689.5 | 5/5 | 6.2 | 0/4 | 55.3 | –
5 | O=NN(CCCl)C(=O)N(Cc1ccccc1)C1O[C@H](CO)[C@@H](O[C@H]2O[C@H](CO)[C@@H](O)[C@H](O)[C@H]2O)[C@H](O)[C@H]1O (stereo partly drawn) [Compound 1, 1-(2-chloroethyl)-1-nitroso-3-benzyl-3-[O-α-D-glucopyranosyl-(1→4)-D-glucopyranosyl]urea] | 400 | 5/5 | 256 | 66.7 | 100 | 100 | 100 | 100 | 100 | 1.56 | 0/4 | 55.2 | 4/4 | > 589.7 | 1/4 | > 236.8 | – | 9.3 | – | – | –
6 | O=NN(CCCl)C(=O)N(Cc1cccs1)C1OC[C@H](O)[C@H](O)[C@H]1O (stereo partly drawn) [Compound 13, 1-(2-chloroethyl)-1-nitroso-3-(thiophen-2-yl-methyl)-3-(L-arabinopyranosyl)urea] | 100 | – | 128 | 100 | 100 | 100 | 100 | 100 | – | 0.78 | 2/4 | > 442.9 | – | – | – | – | 5/5 | 54 | – | – | inhibition in vivo at 0.19 mg/kg [3, 4]: 18%; 60-day survivors (mice survived/mice used) (Leukemia L-1210; 12.5 mg/kg/day i.p.): 0/4; ILS (Leukemia L-1210; 12.5 mg/kg/day i.p.): 121.4%; 60-day survivors (mice survived/mice used) (Leukemia L-1210; 50 mg/kg/day i.p.): 2/4; ILS (Leukemia L-1210; 50 mg/kg/day i.p.): > 414.3%
7 | O=NN(CCCl)C(=O)N(CC1CC1)C1O[C@H](CO)[C@H](O)[C@H](O)[C@H]1O (stereo partly drawn) [Compound 8, 1-(2-chloroethyl)-1-nitroso-3-cyclopropylmethyl-3-(D-galactopyranosyl)urea] | 100 | – | 128 | 100 | 100 | 100 | 100 | 100 | – | 0.78 | 4/4 | > 650.0 | – | – | – | – | 3/5 | 21.1 | 0/4 | 53.8 | 60-day survivors (mice survived/mice used) (Leukemia L-1210; 50 mg/kg/day i.p.): 4/4; ILS (Leukemia L-1210; 50 mg/kg/day i.p.): > 650.0%
8 | O=NN(CCCl)C(=O)N(CC1CC1)C1OC[C@H](O)[C@H](O)[C@H]1O (stereo partly drawn) [Compound 10, 1-(2-chloroethyl)-1-nitroso-3-cyclopropylmethyl-3-(L-arabinopyranosyl)urea] | 100 | – | 128 | 100 | 100 | 100 | 100 | 100 | – | 0.78 | 4/4 | > 721.9 | – | – | – | – | 5/5 | 79.5 | 0/4 | 82.2 | inhibition in vivo at 0.19 mg/kg [3, 4]: 17.9%; 60-day survivors (mice survived/mice used) (Leukemia L-1210; 50 mg/kg/day i.p.): 4/4; ILS (Leukemia L-1210; 50 mg/kg/day i.p.): > 721.9%
